We go through 14 molecules from patent publication EP4786466A1, “QUINAZOLINE DERIVATIVE, SALT THEREOF, AND PHARMACEUTICAL COMPOSITION COMPRISING SAME AS ACTIVE INGREDIENT” (Korea Research Institute of Chemical Technology, priority 2023, dated 2025).

Data set [1] deals with MCF10A normal breast cell lines. In words: Cell viability analysis, WST-8 assay, MCF10A. To be noted: Homo sapiens, MCF-10A, 72 h. A general note: Tetrazolium assays rely on reduction of a dye to a coloured formazan, in cell work by metabolically active cells.
Method: (§1) MCF7 breast cancer cell lines and MCF10A normal breast cancer cell lines were treated with serial dilutions of the compounds of the present invention ranging from 1 µM to 15.63 nM for 72 hours. Cell viability was measured by the WST-8 assay (Cyto XTM cell viability assay kit; LPS solution, Daejeon, Korea) according to the manufacturer's instructions.
For data set [2], the system named is MCF7 breast cancer cell lines. In words: Cell viability analysis, WST-8 assay, MCF7. To be noted: Homo sapiens, MCF7, 72 h; for viability at 1 µM: read-out: Cell viability (%) WST-8, MCF7 (1 µM), compound 1 µM, 72 hours; for viability at 1.25 µM: read-out: Cell viability (%) WST-8, MCF7, footnote a: concentration 1.25 µM, 72 hours.
Method: as §1
The target of data set [3] is T1, Recombinant GST-TAG-MASTL (Homo sapiens, UniProt Q96GX5).
T1 construct: GST; purchased Thermo Fisher Scientific
T1 sequence (Q96GX5 1-879): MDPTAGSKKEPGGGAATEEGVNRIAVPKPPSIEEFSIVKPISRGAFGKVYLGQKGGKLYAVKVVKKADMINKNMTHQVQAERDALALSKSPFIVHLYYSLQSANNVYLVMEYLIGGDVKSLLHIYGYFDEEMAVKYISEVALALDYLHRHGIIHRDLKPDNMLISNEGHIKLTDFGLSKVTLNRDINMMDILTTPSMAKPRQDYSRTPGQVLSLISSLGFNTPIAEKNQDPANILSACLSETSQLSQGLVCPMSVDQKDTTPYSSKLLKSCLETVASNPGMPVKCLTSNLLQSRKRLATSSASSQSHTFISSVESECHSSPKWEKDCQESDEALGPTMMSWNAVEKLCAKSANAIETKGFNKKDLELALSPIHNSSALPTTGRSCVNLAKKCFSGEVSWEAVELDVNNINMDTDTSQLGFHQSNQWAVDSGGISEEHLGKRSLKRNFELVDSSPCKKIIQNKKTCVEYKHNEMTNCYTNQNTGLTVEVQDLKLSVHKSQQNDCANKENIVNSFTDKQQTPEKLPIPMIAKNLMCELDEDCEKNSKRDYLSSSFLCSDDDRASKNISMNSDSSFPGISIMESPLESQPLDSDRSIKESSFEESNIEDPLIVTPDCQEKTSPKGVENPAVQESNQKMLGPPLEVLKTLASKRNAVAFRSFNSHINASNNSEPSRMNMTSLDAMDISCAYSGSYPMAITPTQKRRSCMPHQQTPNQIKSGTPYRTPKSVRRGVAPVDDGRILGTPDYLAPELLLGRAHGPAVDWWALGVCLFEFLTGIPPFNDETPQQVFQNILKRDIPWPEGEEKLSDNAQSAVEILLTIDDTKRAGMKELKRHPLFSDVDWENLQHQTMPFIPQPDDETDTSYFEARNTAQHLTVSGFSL
In words: HTRF-based kinase assay (HTRF KinEASE assay kit). Conditions: for activity at 1 µM: compound 1 µM, read-out: MASTL activity (%) HTRF (1 µM). The format is biochemical. An excerpt:
Recombinant GST-TAG-MASTL (Thermo Fisher Scientific, MA, USA) was used for HTRF-based kinase assays. The HTRF KinEASE assay kit (CisBio, MA, USA) was used according to the manufacturer's instructions.
In general terms: Time-resolved FRET reads energy transfer from a long-lived donor to a nearby acceptor.

The nature of the next data set: in vitro. To be noted: human.
Another data set concerns pENSA. In words: pENSA level by immunofluorescence (described method: in vitro kinase analysis with GST-tag-MASTL and His-tag-ENSA). The format is cell-based. To be noted: for pENSA (%) Immunofluor ecense (1 µM): compound 1 µM. The essentials:
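In vitro kinase reaction using recombinant GST-tagged MASTL with His-tagged ENSA as substrate; phosphorylated ENSA (pENSA) serves as read-out of MASTL activity. Cell lines named: MCF7 breast cancer and MCF10A.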

Where [4] appears, read: read-out: IC50 Cell viability (MCF10A).
Where [5] appears, read: read-out: IC50 Cell viability (MCF7).
[6] abbreviates: HTRF, read-out: IC50(nM) MASTL activity.
Where [7] appears, read: read-out: IC50(nM) Cell viability (MCF10A).
The mark [8] stands for this setting: read-out: IC50(nM) Cell viability (MCF7).
Where [9] appears, read: HTRF, unit µM, read-out: IC50 MASTL activity.
Setting [10] is: footnote b: concentration 10 µM, read-out: MASTL activity (%) HTRF.

Molecules are shown by their SMILES. Read-outs that look alike come from different tables or passages of the source.

As for `CCCS(=O)(=O)N1CC2CC1CN2c1nc(Nc2cc(C3CC3)[nH]n2)c2ccccc2n1` (centres unmarked) [compound 15j, M-(5-cyclopropyl-1G-pyrazol-3-yl)-2-(5-(propylsulfonyl)-2,5-diazabicyclo[2.2.1]heptan-2-yl)quinazolin-4-amine], the IC50 in data set [1] (setting [4]) is 1300 nM; in data set [2] (setting [5]), 3200 nM; in data set [3] (setting [6]), 284 nM. The viability at 1.1 µM worked out at 104% in data set [2] (read-out: Cell viability (%) WST-8, MCF7, footnote d: concentration 1.1 µM, 72 hours) and 65.2% in “in vitro” (mcf10a cells). The activity at 1 µM in data set [3] was 31.6%. For the same molecule, the “pENSA (%) Immunofluor ecense (1 µM)” value in the data set with pENSA is listed as 65.2%.
Consider `c1ccc2c(Nc3cc(C4CC4)[nH]n3)nc(Nc3cccc4[nH]ccc34)nc2c1` [compound 4da, N^4-(5-cyclopropyl-1H-pyrazol-3-yl)-N^2-(1H-indol-4-yl)quinazoline-2,4-diamine], for which the 50% inhibitory concentration (IC50) in data set [1] (setting [7]) is 683 nM; in data set [2] (setting [8]), 702 nM; in data set [3] (setting [6]), 309 nM; in the data set with pENSA (unit µM, read-out: IC50 pENSA), 1.8 µM. Moreover, the viability at 1 µM was 30.1% in data set [2] and 18.9% in the data set “in vitro”. In data set [3], the activity at 1 µM amounted to 58.5%.
Regarding `Cc1cc(Cl)ccc1C1=CCN(c2nc(Nc3cc(C4CC4)[nH]n3)c3ccccc3n2)CC1` [compound 6l, 2-(4-(4-chloro-2-methylphenyl)-3,6-dihydropyridin-1(2G)-yl)-M-(5-cyclopropyl-1G-pyrazol-3-yl)quinazolin-4-amine], the half-maximal inhibitory concentration (IC50) in data set [1] (setting [7]) was 332 nM; in data set [2] (setting [8]), 484 nM. Further, the viability at 1 µM is 47.8% in data set [2] and 15.2% in “in vitro” (mcf10a cells). Also, the activity at 1 µM in data set [3] was 76.1%. The “pENSA (%) Immunofluor ecense (1 µM)” value with pENSA is 101%.
With `CC(C)(C)OC(=O)NCCNC(=O)c1ccc(Nc2nc(Nc3cc(C4CC4)[nH]n3)c3ccccc3n2)cc1` [compound 4w, sdqs-butyl (2-(4-((4-((5-cyclopropyl-1G-pyrazol-3-yl)amino)quinazolin-2-yl)amino)benzamido)ethyl)carbamate], the figures for the IC50 in data set [1] (setting [7]), in data set [2] (setting [5]) and in data set [3] (setting [9]) were 908 nM, 1800 nM and 1300 nM, respectively. The viability at 1 µM in data set [2] was determined as 72%; in the data set “in vitro” (mcf10a cells) it was 63.4%. For the same molecule, the activity at 1 µM in data set [3] stood at 48.5%. Also, the “pENSA (%) Immunofluor ecense (1 µM)” value in the data set with pENSA is recorded as 135%.
Turning to `Cc1ccc(C2=CCN(c3nc(Nc4cc(C5CC5)[nH]n4)c4ccccc4n3)CC2)c(C)c1` [compound 6j, M-(5-cyclopropyl-1G-pyrazol-3-yl)-2-(4-(2,4-dimethylphenyl)-3,6-dihydropyridin-1(2G)-yl)quinazolin-4-amine], the IC50 turned out to be 566 nM in data set [1] (setting [7]) and 674 nM in data set [2] (setting [8]). Moreover, the viability at 1 µM stood at 45.6% in data set [2] and 33.1% in the data set “in vitro” (mcf10a cells). Further, the activity at 1 µM in data set [3] turned out to be 80%. Further, the “pENSA (%) Immunofluor ecense (1 µM)” value in the data set on pENSA turned out to be 97.4%.
Regarding `O=S(=O)(NCCO)c1ccc(Nc2nc(Nc3cc(C4CC4)[nH]n3)c3ccccc3n2)cc1` [compound 4i, 4-((4-((5-cyclopropyl-1G-pyrazol-3-yl)amino)quinazolin-2-yl)amino)-M-(2-hydroxyethyl)benzenesulfonamide], the IC50 in data set [1] (setting [7]) stood at 132 nM; in data set [2] (setting [5]), 1100 nM; in data set [3] it was 1200 nM; in the data set on pENSA (read-out: IC50(nM) pENSA), 0.378 µM. For the same molecule, the viability at 1.25 µM in data set [2] is 45.9%; in “in vitro” (mcf10a cells), 5.8%. Also, in data set [3] (read-out: MASTL activity (%) HTRF), the activity at 10 µM was found to be 8.7%. Also, in the data set on pENSA, the “pENSA (%) Immunofluor ecense (1 µM)” value came to 16%.
Consider `NC(=O)Cc1ccc(Nc2nc(Nc3cc(C4CC4)[nH]n3)c3ccccc3n2)cc1` [compound 4u, 2-(4-((4-((5-cyclopropyl-1G-pyrazol-3-yl)amino)quinazolin-2-yl)amino)phenyl)acetamide], for which the concentration for half-maximal inhibition (IC50) in data set [1] (setting [7]) is 718 nM; in data set [3] (setting [6]), 392 nM. Moreover, the viability at 1 µM in data set [2] is 64.8%; in “in vitro” (mcf10a cells) it was 25.5%. Further, in data set [3], the activity at 1 µM is 30.5%. The “pENSA (%) Immunofluor ecense (1 µM)” value in the data set on pENSA stood at 41.2%.
Take `CC(C)(C)OC(=O)N1CC2CC1CN2c1nc(Nc2cc(C3CC3)[nH]n2)c2ccccc2n1` (centres unmarked) [compound 13, sdqs-butyl 5-(4-((5-cyclopropyl-1G-pyrazol-3-yl)amino)quinazolin-2-yl)-2,5-diazabicyclo[2.2.1]heptane-2-carboxylate]: the 50% inhibitory concentration (IC50) in data set [1] (setting [7]) turned out to be 316 nM; in data set [2] (setting [8]) it was 932 nM; in data set [3] (setting [9]), 1000 nM. Further, the viability at 1.25 µM in data set [2] came out at 62%; in “in vitro” (mcf10a cells), 15.9%. Moreover, the activity at 1.25 µM in data set [3] (footnote a: concentration 1.25 µM, read-out: MASTL activity (%) HTRF) turned out to be 53.8%. In addition, the “pENSA (%) Immunofluor ecense (1 µM)” value with pENSA came to 90%.
Consider `c1ccc2c(Nc3cc(C4CC4)[nH]n3)nc(Nc3ccc4[nH]ccc4c3)nc2c1` [compound 4db, N^4-(5-cyclopropyl-1H-pyrazol-3-yl)-N^2-(1H-indol-5-yl)quinazoline-2,4-diamine], for which the 50% inhibitory concentration (IC50) in data set [1] (setting [7]) was determined as 300 nM; in data set [2] (setting [8]), 221 nM; in the data set on pENSA (unit µM, read-out: IC50 pENSA) it was 2.1 µM. The viability at 1 µM was determined as 3.2% in data set [2] and 8.9% in “in vitro”. For the same molecule, the activity at 1 µM in data set [3] turned out to be 28.9%.
As for `Nc1ccc(Nc2nc(Nc3cc(C4CC4)[nH]n3)c3ccccc3n2)cc1` [compound 4v, M^2-(4-aminophenyl)-M^4-(5-cyclopropyl-1G-pyrazol-3-yl)quinazoline-2,4-diamine], the figures for the 50% inhibitory concentration (IC50) in data set [1] (setting [7]), in data set [2] (setting [8]) and in data set [3] (setting [9]) were 438 nM, 390 nM and 1500 nM, respectively. The viability at 1 µM in data set [2] stood at 32.8%; in “in vitro” (mcf10a cells), 34.1%. Also, in data set [3], the activity at 1 µM was determined as 41.4%. Also, the “pENSA (%) Immunofluor ecense (1 µM)” value in the data set with pENSA came out at 15.3%.
As for `Nc1nc(Nc2cc(C3CC3)[nH]n2)c2ccccc2n1` [compound 4ca, N^4-(5-cyclopropyl-1H-pyrazol-3-yl)quinazoline-2,4-diamine], the concentration for half-maximal inhibition (IC50) in data set [1] (setting [4]) worked out at 2800 nM; in data set [2] (setting [5]) it was 1700 nM; in data set [3] (setting [9]), 1800 nM. For the same molecule, the viability at 1.25 µM was 43% in data set [2] and 99.1% in the data set “in vitro”. The activity at 10 µM in data set [3] (setting [10]) worked out at 37.4%.
For `CC(C)CN1CC2CC1CN2c1nc(Nc2cn[nH]c2)c2ccccc2n1` (centres unmarked) [compound 28e, 2-(5-isobutyl-2,5-diazabicyclo[2.2.1]heptan-2-yl)-M-(1G-pyrazol-4-yl)quinazolin-4-amine], the viability at 1 µM in data set [2] was 97.3%; in the data set “in vitro” (mcf10a cells), 105%. Moreover, the activity at 1 µM in data set [3] turned out to be 103%. The “pENSA (%) Immunofluor ecense (1 µM)” value with pENSA is given as 95.8%.
The corresponding values for `CC(C)(C)OC(=O)N1CCC2(CC1)CCN(c1nc(Nc3cc(C4CC4)[nH]n3)c3ccccc3n1)CC2` [compound 6b, sdqs-butyl 9-(4-((5-cyclopropyl-1G-pyrazol-3-yl)amino)quinazolin-2-yl)-3,9-diazaspiro[5.5]undecane-3-carboxylate] are 116%, 122%, 43.5% and 98.2%.
Consider `c1ccc2c(Nc3cc(C4CC4)[nH]n3)nc(Nc3ccc(Cc4nnn[nH]4)cc3)nc2c1` [compound 4e, M^2-(4-((1G-tetrazol-5-yl)methyl)phenyl)-M^4-(5-cyclopropyl-1G-pyrazol-3-yl)quinazoline-2,4-diamine], for which the results for the viability at 1.25 µM (in data set [2]; in the data set “in vitro” (mcf10a cells)) were 112% and 110%, respectively. Besides, the half-inhibitory concentration (IC50) in data set [3] (setting [6]) was determined as 164 nM. In addition, the activity at 10 µM in data set [3] (setting [10]) amounted to 15.1%. For the same molecule, the “pENSA (%) Immunofluor ecense (1 µM)” value with pENSA was found to be 90.7%.

One may read the IC50 as the midpoint of a concentration-inhibition curve.
